According to US7402575B2, “Methods of treating inflammation” (priority 2003, dated 2008):

How the values were obtained:
Format in all cases: cell-based, dog
[1] = system: nitric-oxide guanosine 3′,5′cyclic monophosphate pathway; assay: Effect of NOS, guanylyl cyclase and PKG inhibitors on lysozyme's myocardial depressant effect in right ventricular trabecular preparation; details: for Effect on lysozyme's myocardial depressant effect: muscle incubated with inhibitor about one hour before lysozyme
Procedure: (§1) The right ventricular trabecular preparation used in this study has previously been described. Briefly, mongrel dogs (3 to 10 kg) were anesthetized with pentobarbital. The hearts were removed, flushed with 50 ml of Krebs-Henseleit solution (KH), and placed in ice-cold KH bubbled with a mixture of 95% O2 and 5% CO2. Three to four thin trabeculae (<1 mm diameter) were obtained from the right ventricle and were tied at each end with 6-O silk thread. Each thin muscle was suspended in a 5 ml vertical constant temperature bath that contained KH. The muscle was stimulated electrically via punctate platinum bipolar electrodes with rectangular pulses (1 ms duration) at an intensity of 50% above threshold delivered at intervals of 2,000 ms. The trabeculae were stretched to optimal length.
The plasma concentration of lysozyme attained in the inventors' sepsis model is approximately 10^−8M, and the 10^−7M to 10^−9M range was used in the experiments described below. Lysozyme was purified from the spleens of nonseptic dogs as previously described. Measurements were obtained at 5 minute intervals.
In one group of experiments, the non-specific nitric oxide synthase inhibitor N^G-monomethyl-L-arginine (L-LNMMA) was used to determine whether it could inhibit the depressant effect of lysozyme. The muscle was incubated with L-NMMA (10^−3M) for approximately one hour after which lysozyme was instilled into the preparation. As a negative control group, ventricular trabeculae were incubated with D-NMMA after which lysozyme was instilled. With the D-isomer, no inhibition of lysozyme's effect would be expected.
In separate experiments, the respective roles of eNOS, nNOS, and iNOS were evaluated in which the objective was to determine which of the NOS isoforms was responsible for the myocardial depression observed with lysozyme. The relatively specific inhibitors for eNOS (L-NIO.2HCl [L-N^5-(1-[Iminoethyl)-ornithine.2HCl], nNOS (N-ω-Propyl-L-arginine [N^5-[Imino(propylamino)methyl]-L-ornithine], and iNOS (1400W.dihydrochloride [N-(3-aminomethyl)benzyl)acetamidine.2HCl] were compared in respective experiments in which a range of concentrations of either NOS inhibitor was used.
In other experiments, the muscle was incubated ODQ (10^−3M) or the PKG inhibitor (Rp-8-Br-cGMP) for one hour. The effect of lysozyme on isometric tension was compared to trabeculae without the respective inhibitors.
The results are expressed as a percent of baseline isometric tension. Statistical analyses included two-way analysis of variance and Student Newman Keuls' multiple comparison test. The results are reported as mean (±SD).

[2] = target: T1, lysozyme c (Lzm-S) (Canis lupus familiaris, UniProt P81709); assay: Inhibition of Lzm-S's myocardial depressant activity (isometric tension) in right ventricular trabecular preparation; details: for Isometric tension following pre-treatment with sugar: sugar 10^−3M added before Lzm-S; for Inhibition of Lzm-S's depressant effect on isometric tension: inhibitor 10^−3M added before Lzm-S, paced 0.5 Hz
T1 construct: Lzm-S was purified in a manner described by Grobler et al (14); from tissue
T1 sequence (P81709 1-130): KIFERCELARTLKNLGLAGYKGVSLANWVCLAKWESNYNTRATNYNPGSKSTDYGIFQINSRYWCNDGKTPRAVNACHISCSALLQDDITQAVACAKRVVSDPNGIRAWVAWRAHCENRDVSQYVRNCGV
Procedure: In subsequent experiments, the objective was to determine whether pretreatment of Lzm-S with the proteolytic enzyme proteinase-K reduced the extent to which myocardial depression developed in the in vitro preparation (7). Proteinase-K (attached to beaded agarose; Sigma Chemical, St Louis, Mo.) was added to the pure Lzm-S preparation. The effects of proteinase-K treated and nontreated Lzm-S on isometric tension were compared between the samples. Since proteinase-K is a non-specific proteolytic enzyme, a specific competitive inhibitor of lysozyme, TAC (chitotriose) was subsequently examined to determine whether it prevented the depression in isometric tension observed in the in vitro preparation (16,17).
In one set of experiments, it was determined whether TAC prevented the reduction in tension observed with Lzm-S. A dose of 10^−3M TAC (based on preliminary experiments) was added to the organ bath before the addition of Lzm-S. Lzm-S was then added to bring the final concentrations to 10^−10M, 10^−9M, 10^−8M, and 10^−7M in sequential steps. In a related set of experiments, the effect of TAC was studied under a similar protocol in which the ventricular trabecular preparation was paced at 1 Hz instead of 0.5 Hz. The objective was to determine whether the higher frequency altered the inhibitory response of TAC. In a third set of experiments, the sequence of adding TAC and Lzm-S was reversed. Lzm-S (10^−7M) was initially added to the preparation, after which TAC at bath concentrations of 10^−6M, 10^−5M, 10^−4M, 10^−3M were sequentially added. The objective was to determine whether TAC could attenuate the effect of Lzm-S on reducing the isometric response after an initial depression in isometric tension had already been attained.
as §1, with “(RV)” for “trabecular”, “also” for “previously”, “described (49,6).” for “described.”, “a” for “a 5 ml”, “bath (5 ml)” for “bath”, “KH (in mM: NaCl, 118; KCl, 4.7; CaCl2 2.5; MgSO4, 1.2; KH2PO4, 1.4; NaHCO3, 25; and dextrose, 11).” for “KH.”
Inhibitory activities of N-acetylglucosamine (NAG), N,N′ diacetylglucosamine (NAG-NAG: N,N′ diacetylchitobiose), and N,N′,N″,N′″ tetraacetylglucosamine (NAG-NAG-NAG-NAG: N,N′,N″,N′″-tetraacetylchitotetraose) were examined (Sigma Corp Canada, Oakville Ontario). These are structurally similar to TAC, but have a different number of NAG units (17). Two somewhat related sugars were also examined to see if there was potential for blocking the activity of lysozyme. These included D-cellotriose and N-aceytllactosamine. D-cellotriose includes three glucose residues linked by beta (1-4) glycosidic linkages, while N acetyllactosamine includes N-acetylglucosamine and galactose residues linked by beta (1-4) glycosidic linkages (12).
After baseline tension was determined, either the sugar or placebo was placed into respective organ baths. The concentration of the sugar used was 10^−3M based on the inventors' previous experiments with TAC 49), while the concentrations of lysozyme were 10^−9, 10^−8, and 10^−7M, respectively. Measurements were obtained at 5 minute intervals. The changes in isometric tension measured from baseline were compared between the treated and placebo baths. […]

[3] = system: right ventricular trabecular preparation; assay: Effect of the substance itself on isometric tension in right ventricular trabecular preparation
Procedure: Aliquots of the 10-30 KD plasma fraction (0.05 to 1 ml) were then added to a right ventricular (RV) trabecular preparation to test for the presence of FCS activity. The RV preparation has previously been described (6,7). Briefly, mongrel dogs (3 to 10 kg) were anesthetized with pentobarbital, and their hearts were removed. Three to four thin trabeculae (<1 mm diameter) were obtained from the right ventricle and were suspended in a vertical constant temperature bath (5 ml) that contained Krebs Henseleit (KH) solution. The muscle was stimulated electrically at 0.5 Hz. Aliquots of plasma fractions (from 0.05 to 1 ml) were added to respective organ baths at 5 minute intervals. The changes observed in the pre and septic plasma fractions were expressed relative to tensions found at baseline (i.e. prior to the addition of the sample). An increase in the depressant activity in the septic plasma fraction relative to that found in the presepsis sample was indicative of an increase in FCS.
The effect of purified Lzm-S on myocardial depression was then studied in the ventricular trabecular preparation. In initial experiments, the objective was to compare Lzm-S prepared from septic and nonseptic spleens to see if there was any difference between the two preparations. Although no differences were apparent by SDS-PAGE gel, different isoforms of the enzyme could have developed in sepsis thereby increasing its potential to cause myocardial depression. Aliquots of the septic and nonseptic preparations were added (at 5 minute intervals) to respective organ baths, and the changes in isometric tension were then compared between Lzm-S obtained from spleens of septic and nonseptic animals.
The right ventricular (RV) preparation used in this study has also been described (49,6). Briefly, mongrel dogs (3 to 10 kg) were anesthetized with pentobarbital. The hearts were removed, flushed with 50 ml of Krebs-Henseleit solution (KH), and placed in ice-cold KH bubbled with a mixture of 95% O2 and 5% CO2. […]
After baseline tension was determined, either the lectin or placebo was placed into respective organ baths. […]

Compound: CC(=N)NCCC[C@H](N)C(=O)O.Cl.Cl [eNOS]
- Concentration of the NOS inhibitor at which lysozyme's depressant effect was prevented [1]: 10^−8 M
- Effect on lysozyme's myocardial depressant effect [1]: most potent in the prevention of lysozyme's myocardial depressant effect

Compound: CC(=O)N[C@H]1C(O)O[C@H](CO)[C@@H](O[C@@H]2O[C@H](CO)[C@H](O)[C@H](O)[C@H]2O)[C@@H]1O (stereo partly shown) [N-acetyllactosamine]
- Isometric tension following pre-treatment with sugar ([2]; Lzm-S 10^−7M): 48±1 % of baseline
- Isometric tension following pre-treatment with sugar ([2]; Lzm-S 10^−8M): 55±1 % of baseline
- Isometric tension following pre-treatment with sugar ([2]; Lzm-S 10^−9M): 60±0 % of baseline
- Inhibition of Lzm-S's depressant effect on isometric tension [2]: neither N-acetylglucosamine (NAG), N-acetyllactosamine nor cellotriose had inhibitory properties

Compound: CNC(=N)NCCC[C@H](N)C(=O)O [L-NMMA, N^G-monomethyl-L-arginine, reference compound]
- Effect of the substance by itself on isometric tension [3]: no change in isometric tension
- Effect on lysozyme's myocardial depressant effect [1]: markedly attenuated

Compound: CC(=O)N[C@H]1[C@H](O[C@H]2[C@H](O)[C@@H](NC(C)=O)C(O)O[C@@H]2CO)O[C@H](CO)[C@@H](O[C@@H]2O[C@H](CO)[C@@H](O[C@@H]3O[C@H](CO)[C@@H](O)[C@H](O)[C@H]3NC(C)=O)[C@H](O)[C@H]2NC(C)=O)[C@@H]1O (stereo partly shown) [tetraacetylchitotetraose, N,N′,N″,N′″ tetraacetylglucosamine]
- Inhibition of Lzm-S's depressant effect on isometric tension [2]: no inhibitory effect
- Inhibition of Lzm-S's depressant effect on isometric tension ([2]; listed as N,N′,N″,N′″ tetraacetylchitotetraose): no inhibitory effect on lysozyme's depressant activity

Compound: CC(=O)N[C@H]1C(O)O[C@H](CO)[C@@H](O)[C@@H]1O (stereo partly shown) [N-acetylglucosamine]
- Isometric tension following pre-treatment with sugar ([2]; Lzm-S 10^−7M): 44±2 % of baseline
- Isometric tension following pre-treatment with sugar ([2]; Lzm-S 10^−8M): 61±4.5 % of baseline
- Isometric tension following pre-treatment with sugar ([2]; Lzm-S 10^−9M): 85±2 % of baseline
- Inhibition of Lzm-S's depressant effect on isometric tension [2]: neither N-acetylglucosamine (NAG), N-acetyllactosamine nor cellotriose had inhibitory properties

Compound: OCC1OC(OC2C(CO)OC(OC3C(CO)OC(O)C(O)C3O)C(O)C2O)C(O)C(O)C1O [cellotriose, D-cellotriose]
- Isometric tension following pre-treatment with sugar ([2]; Lzm-S 10^−7M): 58±17 % of baseline
- Isometric tension following pre-treatment with sugar ([2]; Lzm-S 10^−8M): 79±13 % of baseline
- Isometric tension following pre-treatment with sugar ([2]; Lzm-S 10^−9M): 84±9 % of baseline
- Inhibition of Lzm-S's depressant effect on isometric tension [2]: neither N-acetylglucosamine (NAG), N-acetyllactosamine nor cellotriose had inhibitory properties

Compound: CNC(=N)NCCCC(N)C(=O)O [D-NMMA]
- Effect on lysozyme's myocardial depressant effect [1]: no inhibition

Compound: O=c1c2nc(Br)n(C3OC4COP([O-])(=S)OC4C3O)c2nc2[nH]c(-c3ccccc3)cn12.[Na+] (single isomer, unassigned) [Rp-8-Br-cGMP, guanosine 3′,5′-cyclic monophosphorothioate, β-phenyl-1, N^2-etheno-8-bromo-Pp-isomer, sodium salt]
- Effect on lysozyme's myocardial depressant effect [1]: blocked

Compound: O=c1onc2cnc3ccccc3n12 [ODQ, 1H-[1,2,4] oxidadiazolo-[4,3-a] quinoxalin-1-one]
- Effect on lysozyme's myocardial depressant effect [1]: blocked

Compound: N=C(N)NCCC[C@H](N)C(=O)O [L-arginine]
- Effect on the inhibition by L-NMMA [1]: able to competively overcome the effect of L-NMMA
